Assay results: patent US20110182850A1, “ORGANIC COMPOUNDS AND THEIR USES” (priority 2009, published 2011)

The compounds below were run against T1, HCV NS3-4A serine protease (full-length NS3-4A protein, genotype 1a, strain HCV-1) (Hepatitis C virus genotype 1a, UniProt P26664) (assay: HCV NS3-4A protease assay). Conditions: Protease IC50.
T1 construct: using the full-length NS3-4A protein (genotype 1a, strain HCV-1)
Assay type: biochemical
Method: The inhibitory activity of certain compounds of Table A against HCV NS3-4A serine protease is determined in a homogenous assay using the full-length NS3-4A protein (genotype 1a, strain HCV-1) and a commercially available internally-quenched fluorogenic peptide substrate as described by Taliani, M., et al. 1996 Anal. Biochem. 240:60-67, which is incorporated by reference in its entirety.

T1 sequence (P26664 1658-1711): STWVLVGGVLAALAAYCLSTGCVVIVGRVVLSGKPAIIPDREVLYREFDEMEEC
T1 sequence (P26664 1027-1657): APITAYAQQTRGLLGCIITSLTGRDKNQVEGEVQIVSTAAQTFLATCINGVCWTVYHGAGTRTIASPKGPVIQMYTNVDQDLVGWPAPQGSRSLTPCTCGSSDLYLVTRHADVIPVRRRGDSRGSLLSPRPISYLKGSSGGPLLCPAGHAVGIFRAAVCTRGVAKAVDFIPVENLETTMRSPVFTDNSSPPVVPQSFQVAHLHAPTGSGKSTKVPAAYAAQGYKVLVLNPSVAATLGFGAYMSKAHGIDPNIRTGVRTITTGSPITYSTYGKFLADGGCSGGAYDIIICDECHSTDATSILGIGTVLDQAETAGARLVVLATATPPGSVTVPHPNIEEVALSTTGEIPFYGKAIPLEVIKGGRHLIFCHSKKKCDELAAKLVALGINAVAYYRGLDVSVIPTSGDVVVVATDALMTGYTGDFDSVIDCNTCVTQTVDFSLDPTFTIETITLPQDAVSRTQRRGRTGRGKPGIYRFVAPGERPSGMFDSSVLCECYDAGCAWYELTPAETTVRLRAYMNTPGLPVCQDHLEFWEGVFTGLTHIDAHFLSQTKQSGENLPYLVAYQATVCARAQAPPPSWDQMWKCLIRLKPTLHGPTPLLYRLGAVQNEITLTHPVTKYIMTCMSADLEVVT

**Q.** With `C=C[C@@H]1C[C@]1(NC(=O)[C@@H]1C[C@@]2(CN1C(=O)[C@@H](NC(=O)[C@H]1NC(=O)[C@@H]3CCCCN3CCCCCCC1(C)C)C(C)(C)C)C(C)(C)C21CCC1)C(=O)NS(=O)(=O)C1CC1` [Compound 53, (5R,8S)-N-{(1R,2S)-1-[(cyclopropylsulfonyl)carba-moyl]-2-vinylcyclopropyl}-7-[(2S)-2-({[(3S,15aS)-4,4-dimethyl-1-oxotetradecahydro-2H-pyrido[1,2-a][1,4]diazacyclododecin-3-yl]carbonyl}amino)-3,3-dimethylbutanoyl]-10,10-dimethyl-7-azadispiro[3.0.4.1]decane-8-carboxamide] as the compound, how does the IC50 read?
**A.** Its IC50 is 3.5 nM.

**Q.** `C=C[C@@H]1C[C@]1(NC(=O)[C@@H]1C[C@@]2(CN1C(=O)[C@@H](NC(=O)[C@@H](NC(=O)N1CCN(C)CC1)C(C)(C)C)C(C)(C)C)C(C)(C)C21CCC1)C(=O)NS(=O)(=O)C1CC1` [Compound 55, (5R,8S)-N-{(1R,2S)-1-[(cyclopropylsulfonyl)carba-moyl]-2-vinylcyclopropyl}-7-[(2S)-2-{[(2S)-3,3-dimethyl-2-{[(4-methylpiperazin-1-yl)carbonyl]amino}butanoyl]amino}-3,3-dimethylbutanoyl]-10,10-dimethyl-7-azadispiro[3.0.4.1]decane-8-carboxamide] was tested. Which IC50 did it give?
**A.** Its IC50 is 25 nM.

**Q.** For `C=C[C@@H]1C[C@]1(NC(=O)[C@@H]1C[C@@]2(CN1C(=O)[C@@H](NC(=O)[C@@H](NC(=O)N(C)C)C(C)(C)C)C(C)(C)C)C(C)(C)C21CCC1)C(=O)NS(=O)(=O)C1CC1` [Compound 56, (5R,8S)-N-{(1R,2S)-1-[(cyclopropylsulfonyl)carba-moyl]-2-vinylcyclopropyl}-7-[(2S)-2-({(2S)-2-[(dimethylcarbamoyl)amino]-3,3-dimethylbutanoyl}amino)-3,3-dimethylbutanoyl]-10,10-dimethyl-7-azadispiro[3.0.4.1]decane-8-carboxamide], which IC50 is on record?
**A.** Its IC50 is 50 nM.

**Q.** For `C=C[C@@H]1C[C@]1(NC(=O)[C@@H]1C[C@@]2(CN1C(=O)[C@@H](NC(=O)[C@@H](NC(=O)[C@@H]1CCCCN1C(C)C)C1CCCCC1)C(C)(C)C)C(C)(C)C21CCC1)C(=O)NS(=O)(=O)c1ccccc1` [Compound 61, (5R,8S)-7-[(2S)-2-{[(2S)-2-cyclohexyl-2-({[(2S)-1-isopropylpiperidin-2-yl]carbonyl}amino)acetyl]amino}-3,3-dimethylbutanoyl]-10,10-dimethyl-N-{(1R,2S)-1-[(phenylsulfonyl)carbamoyl]-2-vinylcyclopropyl}-7-azadispiro[3.0.4.1]decane-8-carboxamide], which IC50 is on record?
**A.** The IC50 was 1.5 nM.

**Q.** With `C=C[C@@H]1C[C@]1(NC(=O)[C@@H]1C[C@@]2(CN1C(=O)[C@@H](NC(=O)[C@@H](NC(=O)[C@@H]1CCCN1C(C)C)C1CCCCC1)C(C)(C)C)C(C)(C)C21CCC1)C(=O)NS(=O)(=O)c1ccccc1` [Compound 62, (5R,8S)-7-[(2S)-2-{[(2S)-2-cyclohexyl-2-({[(2S)-1-isopropylpyrrolidin-2-yl]carbonyl}amino)acetyl]amino}-3,3-dimethylbutanoyl]-10,10-dimethyl-N-{(1R,2S)-1-[(phenylsulfonyl)carbamoyl]-2-vinylcyclopropyl}-7-azadispiro[3.0.4.1]decane-8-carboxamide] as the compound, how does the IC50 read?
**A.** Its IC50 is 0.7 nM.

Same assay, conditions: read-out: Protease IC50

**Q.** How did the IC50 turn out when `C=C[C@@H]1C[C@]1(NC(=O)[C@@H]1C[C@@]2(CN1C(=O)[C@@H](NC(=O)[C@@H](NS(=O)(=O)c1ccccc1)C(C)(C)C)C(C)(C)C)C(C)(C)C21CCC1)C(=O)NS(=O)(=O)C1CC1` [Compound 46, (5R,8S)-N-{(1R,2S)-1-[(cyclopropylsulfonyl)carba-moyl]-2-vinylcyclopropyl}-7-[(2S)-2-({(2S)-3,3-dimethyl-2-[(phenylsulfonyl)amino]butanoyl}amino)-3,3-dimethylbutanoyl]-10,10-dimethyl-7-azadispiro[3.0.4.1]decane-8-carboxamide] was run?
**A.** The IC50 was 150 nM.

**Q.** With `C=C[C@@H]1C[C@]1(NC(=O)[C@@H]1C[C@@]2(CN1C(=O)[C@@H](NC(=O)[C@@H](NS(C)(=O)=O)C(C)(C)C)C(C)(C)C)C(C)(C)C21CCC1)C(=O)NS(=O)(=O)C1CC1` [Compound 47, (5R,8S)-N-{(1R,2S)-1-[(cyclopropylsulfonyl)carba-moyl]-2-vinylcyclopropyl}-7-[(2S)-2-({(2S)-3,3-dimethyl-2-[(methylsulfonyl)amino]butanoyl}amino)-3,3-dimethylbutanoyl]-10,10-dimethyl-7-azadispiro[3.0.4.1]decane-8-carboxamide] as the compound, how does the IC50 read?
**A.** Its IC50 is 65 nM.

**Q.** With `C=C[C@@H]1C[C@]1(NC(=O)[C@@H]1C[C@@]2(CN1C(=O)[C@@H](NC(=O)[C@@H](NS(=O)(=O)N(C)C)C(C)(C)C)C(C)(C)C)C(C)(C)C21CCC1)C(=O)NS(=O)(=O)C1CC1` [Compound 48, (5R,8S)-N-{(1R,2S)-1-[(cyclopropylsulfonyl)carba-moyl]-2-vinylcyclopropyl}-7-[(2S)-2-{[(2S)-2-{[(dimethylamino)sulfonyl]amino}-3,3-dimethylbutanoyl]amino}-3,3-dimethylbutanoyl]-10,10-dimethyl-7-azadispiro[3.0.4.1]decane-8-carboxamide] as the compound, how does the IC50 read?
**A.** The IC50 was 95 nM.

**Q.** Which IC50 does the source give for `C=C[C@@H]1C[C@]1(NC(=O)[C@@H]1C[C@@]2(CN1C(=O)[C@@H](NC(=O)[C@@H](NS(=O)(=O)c1ncn[nH]1)C(C)(C)C)C(C)(C)C)C(C)(C)C21CCC1)C(=O)NS(=O)(=O)C1CC1` [Compound 49, (5R,8S)-N-{(1R,2S)-1-[(cyclopropylsulfonyl)carba-moyl]-2-vinylcyclopropyl}-7-[(2S)-2-({(2S)-3,3-dimethyl-2-[(1H-1,2,4-triazol-5-ylsulfonyl)amino]butanoyl}amino)-3,3-dimethylbutanoyl]-10,10-dimethyl-7-azadispiro[3.0.4.1]decane-8-carboxamide] here?
**A.** Its IC50 is 200 nM.

**Q.** `C=C[C@@H]1C[C@]1(NC(=O)[C@@H]1C[C@@]2(CN1C(=O)[C@@H](NC(=O)[C@@H](NS(=O)(=O)Cc1ccccc1)C(C)(C)C)C(C)(C)C)C(C)(C)C21CCC1)C(=O)NS(=O)(=O)C1CC1` [Compound 50, (5R,8S)-7-[(2S)-2-({(2S)-2-[(benzylsulfonyl)amino]-3,3-dimethylbutanoyl}amino)-3,3-dimethylbutanoyl]-N-{(1R,2S)-1-[(cyclopropylsulfonyl)carba-moyl]-2-vinylcyclopropyl}-10,10-dimethyl-7-azadispiro[3.0.4.1]decane-8-carboxamide] was tested. Which IC50 did it give?
**A.** The IC50 was 20 nM.

**Q.** How did the IC50 turn out when `C=C[C@@H]1C[C@]1(NC(=O)[C@@H]1C[C@@]2(CN1C(=O)[C@@H](NC(=O)[C@@H](NS(=O)(=O)c1c(C)noc1C)C(C)(C)C)C(C)(C)C)C(C)(C)C21CCC1)C(=O)NS(=O)(=O)C1CC1` [Compound 51, (5R,8S)-N-{(1R,2S)-1-[(cyclopropylsulfonyl)carba-moyl]-2-vinylcyclopropyl}-7-[(2S)-2-{[(2S)-2-{[(3,5-dimethylisoxazol-4-yl)sulfonyl]amino}-3,3-dimethylbutanoyl]amino}-3,3-dimethylbutanoyl]-10,10-dimethyl-7-azadispiro[3.0.4.1]decane-8-carboxamide] was run?
**A.** Its IC50 is 250 nM.

**Q.** For `C=C[C@@H]1C[C@]1(NC(=O)[C@@H]1C[C@@]2(CN1C(=O)[C@@H](NC(=O)[C@@H](NS(=O)(=O)c1cn(C)cn1)C(C)(C)C)C(C)(C)C)C(C)(C)C21CCC1)C(=O)NS(=O)(=O)C1CC1` [Compound 52, (5R,8S)-N-{(1R,2S)-1-[(cyclopropylsulfonyl)carba-moyl]-2-vinylcyclopropyl}-7-[(2S)-2-{[(2S)-3,3-dimethyl-2-{[(1-methyl-1H-imidazol-4-yl)sulfonyl]amino}butanoyl]amino}-3,3-dimethylbutanoyl]-10,10-dimethyl-7-azadispiro[3.0.4.1]decane-8-carboxamide], which IC50 is on record?
**A.** Its IC50 is 200 nM.

**Q.** For `C=C[C@@H]1C[C@]1(NC(=O)[C@@H]1C[C@@]2(CN1C(=O)[C@@H](NC(=O)c1cocn1)C(C)(C)C)C(C)(C)C21CCC1)C(=O)NS(=O)(=O)C1CC1` [Compound 54, (5R,8S)-N-{(1R,2S)-1-[(cyclopropylsulfonyl)carba-moyl]-2-vinylcyclopropyl}-7-{(2S)-3,3-dimethyl-2-[(1,3-oxazol-4-ylcarbonyl)amino]butanoyl}-10,10-dimethyl-7-azadispiro[3.0.4.1]decane-8-carboxamide], which IC50 is on record?
**A.** Its IC50 is 2150 nM.

**Q.** With `C=C[C@@H]1C[C@]1(NC(=O)[C@@H]1C[C@@]2(CN1C(=O)[C@@H](NC(=O)[C@@H](NS(=O)(=O)C(C)C)C(C)(C)C)C(C)(C)C)C(C)(C)C21CCC1)C(=O)NS(=O)(=O)C1CC1` [Compound 58, (5R,8S)-N-{(1R,2S)-1-[(cyclopropylsulfonyl)carba-moyl]-2-vinylcyclopropyl}-7-[(2S)-2-({(2S)-2-[(isopropylsulfonyl)amino]-3,3-dimethylbutanoyl}amino)-3,3-dimethylbutanoyl]-10,10-dimethyl-7-azadispiro[3.0.4.1]decane-8-carboxamide] as the compound, how does the IC50 read?
**A.** Its IC50 is 400 nM.

**Q.** For `C=C[C@@H]1C[C@]1(NC(=O)[C@@H]1C[C@@]2(CN1C(=O)[C@@H](NC(=O)c1coc(CN(C)C)n1)C(C)(C)C)C(C)(C)C21CCC1)C(=O)NS(=O)(=O)C1CC1` [Compound 59, (5R,8S)-N-{(1R,2S)-1-[(cyclopropylsulfonyl)carba-moyl]-2-vinylcyclopropyl}-7-{(2S)-2-[({2-[(dimethylamino)methyl]-1,3-oxazol-4-yl}carbonyl)amino]-3,3-dimethylbutanoyl}-10,10-dimethyl-7-azadispiro[3.0.4.1]decane-8-carboxamide], which IC50 is on record?
**A.** Its IC50 is 400 nM.

**Q.** Which IC50 does the source give for `C=C[C@@H]1C[C@]1(NC(=O)[C@@H]1C[C@@]2(CN1C(=O)[C@@H](NC(=O)[C@@H](CC(=O)N1CCCCC1)C(C)(C)C)C(C)(C)C)C(C)(C)C21CCC1)C(=O)NS(=O)(=O)C1CC1` [Compound 60, (5R,8S)-N-{(1R,2S)-1-[(cyclopropylsulfonyl)carba-moyl]-2-vinylcyclopropyl}-7-[(2S)-2-{[(2S)-3,3-dimethyl-2-(2-oxo-2-piperidin-1-ylethyl)butanoyl]amino}-3,3-dimethylbutanoyl]-10,10-dimethyl-7-azadispiro[3.0.4.1]decane-8-carboxamide] here?
**A.** The IC50 was 200 nM.
